From ChEMBL document CHEMBL1158678, “Two new mono-tetrahydrofuran ring acetogenins, annomuricin E and muricapentocin, from the leaves of Annona muricata” (J Nat Prod, 1998)
In brackets after ≈: the same amount, converted by molar mass.

What was measured:
PC-3 = assay: Cytotoxicity against human PC3 cells after 7 days by MTT assay; format: functional; settings: PC-3, 168 h, read-out: ED50 (the source's name)
A549 = assay: Cytotoxicity against human A549 cells after 7 days by MTT assay; format: functional; settings: A549, 168 h, read-out: ED50 (the source's name)
HT-29 = assay: Cytotoxicity against human HT-29 cells after 7 days by MTT assay; format: functional; settings: HT-29, 168 h, read-out: ED50 (the source's name)
A498 = assay: Cytotoxicity against human A498 cells after 7 days by MTT assay; format: functional; settings: A498, 168 h, read-out: ED50 (the source's name)
MIA PaCa-2 = assay: Cytotoxicity against human MIAPaCa2 cells after 7 days by MTT assay; format: functional; settings: MIA PaCa-2, 168 h, read-out: ED50 (the source's name)
[1] = Toxicity against Artemia salina; format: organism-based; settings: in vivo, read-out: ED50 (the source's name)
MCF7 = assay: Cytotoxicity against human MCF7 cells after 7 days by MTT assay; format: functional; settings: MCF7, 168 h, read-out: ED50 (the source's name)

CCCCCCCCCCCC[C@@H](O)[C@H]1CC[C@H]([C@H](O)CCC[C@@H](O)[C@@H](O)CCCCC[C@@H](O)CC2=C[C@H](C)OC2=O)O1 [ANNOMURICIN E]
EC50 (PC-3): 0.146 µg/mL (≈ 0.238 µM) | EC50 (A549): 0.112 µg/mL (≈ 0.183 µM) | EC50 (HT-29): 0.0668 µg/mL (≈ 0.109 µM) | EC50 (A498): 1.41 µg/mL (≈ 2.3 µM) | EC50 (MIA PaCa-2): 0.0242 µg/mL (≈ 0.0395 µM) | LC50 [1]: 11.8 µg/mL (≈ 19.3 µM) | EC50 (MCF7): 1.45 µg/mL (≈ 2.37 µM)

COc1cccc2c1C(=O)c1c(O)c3c(c(O)c1C2=O)C[C@@](O)(C(=O)CO)C[C@@H]3O[C@H]1C[C@H](N)[C@H](O)[C@H](C)O1 [DOXORUBICIN]
EC50 (PC-3): 0.0355 µg/mL (≈ 0.0653 µM) | EC50 (A549): 0.00294 µg/mL (≈ 0.00541 µM) | EC50 (HT-29): 0.0381 µg/mL (≈ 0.0701 µM) | EC50 (A498): 0.0158 µg/mL (≈ 0.0291 µM) | EC50 (MIA PaCa-2): 0.00456 µg/mL (≈ 0.00839 µM) | EC50 (MCF7): 0.124 µg/mL (≈ 0.228 µM)

CCCCCCCCCCCC[C@@H](O)[C@H]1CC[C@H]([C@H](O)CCC(O)CCCC(O)CCC[C@@H](O)CC2=C[C@H](C)OC2=O)O1 (stereo not given in full) [MURICAPENTOCIN]
EC50 (PC-3): 0.45 µg/mL (≈ 0.734 µM) | EC50 (A549): 0.193 µg/mL (≈ 0.315 µM) | EC50 (HT-29): 0.071 µg/mL (≈ 0.116 µM) | EC50 (A498): 1.72 µg/mL (≈ 2.81 µM) | EC50 (MIA PaCa-2): 0.0503 µg/mL (≈ 0.0821 µM) | LC50 [1]: 1.86 µg/mL (≈ 3.03 µM) | EC50 (MCF7): 1.9 µg/mL (≈ 3.1 µM)
